From US20240269128A1, “COMPOUNDS FOR TREATING OR PREVENTING ALZHEIMER'S DISEASE” (THE UNITED STATES OF AMERICA, as represented by the …, priority 2021, published 2024)

Assays:
H4-hAPP cells = experiment: Aβ secretion assay; format: cell-based, human
Description: (§1) Aβ Secretion: H4-hAPP cells were cultivated in Opti-MEM supplemented with 10% FCS, 1% penicillin/streptomycin 200 μg/mL Hygromycin B and 2.5 μg/mL Blasticidin S. H4-hAPP cells were seeded into 96 well plates (2×10^4 cells per well). On the next day, cells in 96 well plates were treated with compounds, R.I. (DAPT 400 nM) or vehicle. 24 h later, supernatants were collected for further Aβ measurements by MSD® (V-PLEX Aβ Peptide Panel 1 (6E10) Kit, K15200E, Mesoscale Discovery).
as §1, with “secretion: Human APP overexpressing” for “Secretion:”, “HCQ (0.25 μM, 2.5 μM and 25 μM) or the reference item” for “with compounds, R.I.”, “nM), a γ-secretase inhibitor” for “nM) or”
(§2) Cultivation and treatment of H4-hAPP cells: H4-hAPP cells were thawed and cultivated in Opti-MEM supplemented with 10% FCS, 1% penicillin/streptomycin 200 μg/ml Hygromycin B and 2.5 μg/ml Blasticidin S (=culture medium). H4-hAPP cells were seeded into 96 well plates (2×10^4 cells per well). On the next day, cells in 96 well plates were treated with TUDCA (100 μM (C1), 10 μM (C2), or 1.0 μM (C3)), R.I. (DAPT 400 nM) or vehicle. Alternatively, cells in 96 well plates were treated with 25 μM HCQ/0.1 μM TUDCA (C1), 2.5 μM HCQ/100 μM TUDCA (C2), and 2.5 μM HCQ/10 μM TUDCA (C3). 24 h later, supernatants were collected for further Aβ measurements by MSD. The experiment was performed in n=6 technical replicates for all groups.
(§3) Aβ38, 40, 42 measurement: Supernatants were diluted 1:10 and analyzed for human Aβ38, 40, and 42 with MSD® 96-well MULTI-SPOT® 6E10 Abeta Triplex Assay (Mesoscale Discovery, Rockville, MD). The immune assay was carried out according to the manual and plates are read on the MESO QuickPlex SQ 120 multiplexing instrument. Analyte levels were evaluated according to adequate Aβ peptide standards (MSD) as pg per mL.
Aβ Secretion: H4-hAPP cells were cultivated in Opti-MEM supplemented with 10% FCS, 1% penicillin/streptomycin, hygromycin B (200 μg/ml), and blasticidin S (2.5 μg/ml). H4-hAPP cells were seeded into 96-well plates (2×10^4 cells per well). On the next day, cells in 96-well plates were treated with compounds, reference item [400 nM N-[N-(3,5-difluorophenacetyl-1-alanyl)]-S-phenylglycine t-butyl ester (DAPT)], or vehicle. Twenty-four hours later, supernatants were collected for further Aβ measurements by MSD [V-PLEX Aβ Peptide Panel 1 (6E10) Kit, K15200E, Mesoscale Discovery].
as §2, with “Culture” for “Cultivation”, “T.I.,” for “TUDCA (100 μM (C1), 10 μM (C2), or 1.0 μM (C3)),”, “vehicle.” for “vehicle. Alternatively, cells in 96 well plates were treated with 25 μM HCQ/0.1 μM TUDCA (C1), 2.5 μM HCQ/100 μM TUDCA (C2), and 2.5 μM HCQ/10 μM TUDCA (C3).”
as §3, with “measurement in H4-hAPP cells:” for “measurement:”, “Discovery).” for “Discovery, Rockville, MD).”, “were” for “are”, “120.” for “120 multiplexing instrument.”

STAT3 = biological target: T1, STAT3 (Homo sapiens, UniProt P40763); experiment: Western blot of p-STAT3 in tau phosphorylation assay; format: cell-based
T1 construct: endogenous in cells; host or cells: HMC3 (ATCC CRL-3304), 1321N1 (Sigma-Aldrich), SK-N-BE(2)-M17 (ATCC CRL-2267)
Description: Western blot analyses: Samples for western blot analyses were prepared from 3 assays which provided evidence of HCQ-associated rescue (i.e., Ab1-42 clearance, tau phosphorylation, and LPS-induced neuroinflammation). Samples were prepared identically as described above in section: Effect of HCQ on AD-related phenotypes in cell culture, and scaled up to 24-well format to allow for adequate sample volume. After HCQ treatment, cells were washed once with PBS and harvested in 50 μl 50 mM HEPES+2% SDS lysis buffer. The extracts were then boiled at 95° C. for 5 mins. Analytic methods were identical to those described above in Example 4.
Statistical analyses: Statistical analysis was performed using STATA 16.1. Group differences were evaluated using two-sample t-tests (parametric) to calculate differences in p-STAT3 levels between HCQ treated and control samples. We additionally used the Wilcoxon rank-sum test (non-parametric) to confirm that results were robust to distributional assumptions. Significant differences were indicated as p<0.05.

T1 sequence (P40763 whole entry): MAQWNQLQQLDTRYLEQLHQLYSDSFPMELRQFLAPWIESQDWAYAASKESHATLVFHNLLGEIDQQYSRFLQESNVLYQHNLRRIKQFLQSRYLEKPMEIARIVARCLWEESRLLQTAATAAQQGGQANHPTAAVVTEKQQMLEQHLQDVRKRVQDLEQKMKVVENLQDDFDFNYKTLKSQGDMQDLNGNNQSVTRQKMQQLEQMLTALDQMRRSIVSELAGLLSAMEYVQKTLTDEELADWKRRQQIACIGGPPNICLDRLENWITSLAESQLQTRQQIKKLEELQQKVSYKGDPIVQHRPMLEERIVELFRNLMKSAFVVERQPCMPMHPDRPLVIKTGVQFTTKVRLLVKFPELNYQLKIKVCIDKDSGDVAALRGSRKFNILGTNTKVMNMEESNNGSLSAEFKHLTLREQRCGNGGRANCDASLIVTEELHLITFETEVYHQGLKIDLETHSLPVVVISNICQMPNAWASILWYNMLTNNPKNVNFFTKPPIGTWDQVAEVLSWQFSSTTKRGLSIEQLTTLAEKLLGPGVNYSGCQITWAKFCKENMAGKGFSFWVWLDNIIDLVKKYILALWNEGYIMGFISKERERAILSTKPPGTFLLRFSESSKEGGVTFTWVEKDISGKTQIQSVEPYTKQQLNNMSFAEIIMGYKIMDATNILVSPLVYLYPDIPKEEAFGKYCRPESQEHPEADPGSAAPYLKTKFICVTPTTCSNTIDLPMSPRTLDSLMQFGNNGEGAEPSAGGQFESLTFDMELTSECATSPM

SMILES | secretion of Aβ1-38 (H4-hAPP cells; TUDCA 100, 10, 1.0 μM, 24 h) | secretion of Aβ1-40 (H4-hAPP cells; TUDCA 100, 10, 1.0 μM, 24 h) | secretion of Aβ1-42 (H4-hAPP cells; TUDCA 100, 10, 1.0 μM, 24 h) | effect in Aβ release (H4 cells) (H4-hAPP cells; posterior probability of a protective effect) | p-STAT3 (Tyr705) (STAT3; 25 μM and 2.5 μM, relative to VC) | p-STAT3 (Ser727) (STAT3; 25 μM, 2.5 μM and 0.25 μM) | secreted Aβ1-42 (H4-hAPP cells; HCQ 0.25 μM, 2.5 μM and 25 μM)
C[C@H](CCC(=O)NCCS(=O)(=O)O)[C@H]1CC[C@H]2[C@@H]3[C@@H](O)C[C@@H]4C[C@H](O)CC[C@]4(C)[C@H]3CC[C@]12C [TUDCA, tauroursodeoxycholic acid] | lowers | lowers | lowers | protective | – | – | –
CCN(CCO)CCCC(C)Nc1ccnc2cc(Cl)ccc12 (stereo not shown) [HCQ, hydroxychloroquine] | – | – | – | – | lowered | lowered | did not alter
